# Assay results published in patent US20250376445A1, “COMPOUNDS AND METHODS FOR YAP/TEAD MODULATION AND INDICATIONS THEREFOR” (OPNA BIO SA, priority 2023, published 2025).
# Test system: TEAD-dependent transcription
# Test: TEAD-dependent transcription cell-based reporter assay (MSTO-211H+12XGTIIC luciferase)
# Parameters: species or system human
# Conditions: Homo sapiens; MSTO-211H+12XGTIIC reporter cells, 24 hours compound incubation, luminescence normalized to viability; read-out: MSTO-211H GMean IC50 (uM) Cell Assay Reporter Cell Variant: TEAD
# Text: The human mesothelioma cell line MSTO-211H was stably transfected with a pGL4.21 plasmid containing a synthetic promoter with 12 copies of the GTIIC TEAD response element that drives the expression of a luciferase reporter gene^1 using Lipofectamine transfection reagent (Thermo Fisher). Transfected cells were selected using puromycin and single cell clones expressing this construct (referred to as MSTO-211H+12XGTIIC) were generated by limiting dilution. MSTO-211H cells was characterized by genetic alterations in key components of the Hippo pathway^2, resulting in up-regulation of YAP/TEAD-mediated transcription. […] To evaluate TEAD inhibitors, the MSTO-211H+12XGTIIC cell line was seeded in a 96-well plate in 50 μL of culture media at 1×10^4 cells per well and incubated at 37° C. overnight. Serial dilutions of compounds (in total volume of 50 μL of culture media) were added to the cells and incubated at 37° C. for 24 hours. Each plate included cells treated with DMSO as high controls and cells treated with 20 μM of the reference compound K-975 (a known TEAD inhibitor)^3 as low controls. Cell viability was assayed by the addition of 25 μL of CellTiter-Fluor reagent (Promega) followed by a 30-minute incubation at 37° C. and quantification of the fluorescence signal (Ex400/Em505). Subsequently, luciferase expression was assayed by the addition of 25 μL of ONE-Glo reagent (Promega) followed by a 10-minute incubation at room temperature and quantification of the luminescence signal. The luminescence signal was normalized to the fluorescence signal to correct for any loss in cell viability over the 24-hour compound incubation period. The percentage of inhibition of normalized luminescence signal, indicative of compound-mediated inhibition of TEAD-dependent transcription, at individual compound concentrations relative to high and low controls was calculated. The data were analyzed by using nonlinear regression to generate IC50 values for individual compounds.
row,Compound,IC50 [µM]
1,"C[C@@H](NS(C)(=O)=O)C(=O)N1CCc2cc(-c3ccc(C(F)(F)F)cc3)ccc2C1 [O-0161, (R)-N-(1-oxo-1-(6-(4-(trifluoromethyl)phenyl)-3,4-dihydroisoquinolin-2(1H)-yl)propan-2-yl)methanesulfonamide]",0.001 to 10
2,"O=C(c1ccc(C(F)(F)F)cc1)c1cccc2c1CCN(C(=O)Cc1ncc[nH]1)C2 [O-0071, 2-(1H-imidazol-2-yl)-1-(5-(4-(trifluoromethyl)benzoyl)-3,4-dihydroisoquinolin-2(1H)-yl)ethan-1-one]",0.001 to 10
3,"O=C(CCS(=O)(=O)C(F)(F)F)N1CCc2c(cccc2C(F)(F)c2ccc(C(F)(F)F)nc2)C1 [O-0009, 1-(5-(difluoro(6-(trifluoromethyl)pyridin-3-yl)methyl)-3,4-dihydroisoquinolin-2(1H)-yl)-3-((trifluoromethyl)sulfonyl)propan-1-one]",0.001 to 10
4,"C[C@@H](Nc1ccccn1)C(=O)N1CCc2c(cccc2-c2ccc(C(F)(F)F)cc2)C1 [O-0131, (R)-2-(pyridin-2-ylamino)-1-(5-(4-(trifluoromethyl)phenyl)-3,4-dihydroisoquinolin-2(1H)-yl)propan-1-one]",0.001 to 10
5,"O=C(c1ccc(C(F)(F)F)cc1)c1cccc2c1CCN(C(=O)Cc1cscn1)C2 [O-0076, 2-(thiazol-4-yl)-1-(5-(4-(trifluoromethyl)benzoyl)-3,4-dihydroisoquinolin-2(1H)-yl)ethan-1-one]",0.001 to 10
6,"O=C(CCS(=O)(=O)C(F)(F)F)N1CCc2ccc(C(F)c3ccc(C(F)(F)F)nc3)cc2C1 (stereo not drawn) [O-0063, 1-(7-(fluoro(6-(trifluoromethyl)pyridin-3-yl)methyl)-3,4-dihydroisoquinolin-2(1H)-yl)-3-((trifluoromethyl)sulfonyl)propan-1-one]",0.001 to 10
7,"O=C(c1ccc(C(F)(F)F)cc1)c1cccc2c1CCN(C(=O)c1ccc3[nH]ccc3c1)C2 [O-0075, (2-(1H-indole-5-carbonyl)-1,2,3,4-tetrahydroisoquinolin-5-yl)(4-(trifluoromethyl)phenyl)methanone]",0.001 to 10
8,"O=C(c1ccc(C(F)(F)F)cc1)c1cccc2c1CCN(C(=O)CCS(=O)(=O)C(F)(F)F)C2 [O-0005, 1-(5-(4-(trifluoromethyl)benzoyl)-3,4-dihydroisoquinolin-2(1H)-yl)-3-((trifluoromethyl)sulfonyl)propan-1-one]",0.001 to 10
9,"O=C(c1c[nH]c(C(F)(F)F)n1)N1CCc2c(cccc2-c2ccc(C(F)(F)F)cc2)C1 [O-0192, (2-(trifluoromethyl)-1H-imidazol-4-yl)(5-(4-(trifluoromethyl)phenyl)-3,4-dihydroisoquinolin-2(1H)-yl)methanone]",> 100
10,"CS(=O)(=O)CCC(=O)N1CCc2c(cccc2C(O)c2ccc(C(F)(F)F)cc2)C1 (stereo not drawn) [O-0082, 1-(5-(hydroxy(4-(trifluoromethyl)phenyl)methyl)-3,4-dihydroisoquinolin-2(1H)-yl)-3-(methylsulfonyl)propan-1-one]",0.001 to 10
11,"CC(=O)N[C@H](C)C(=O)N1CCc2ccc(-c3ccc(C(F)(F)F)cc3)cc2C1 [O-0182, (R)-N-(1-oxo-1-(7-(4-(trifluoromethyl)phenyl)-3,4-dihydroisoquinolin-2(1H)-yl)propan-2-yl)acetamide]",0.001 to 10
12,"C[C@@H](NC(=O)c1ccccn1)C(=O)N1CCc2ccc(-c3ccc(C(F)(F)F)cc3)cc2C1 [O-0177, (R)-N-(1-oxo-1-(7-(4-(trifluoromethyl)phenyl)-3,4-dihydroisoquinolin-2(1H)-yl)propan-2-yl)picolinamide]",0.001 to 10
13,"CS(=O)(=O)c1nc(C(=O)N2CCc3c(cccc3-c3ccc(C(F)(F)F)cc3)C2)c[nH]1 [O-0193, (2-(methylsulfonyl)-1H-imidazol-4-yl)(5-(4-(trifluoromethyl)phenyl)-3,4-dihydroisoquinolin-2(1H)-yl)methanone]",10 to 100
14,"C[C@@H](NC(=O)c1cccc(N)n1)C(=O)N1CCc2ccc(-c3ccc(C(F)(F)F)cc3)cc2C1 [O-0133, (R)-6-amino-N-(1-oxo-(7-(4-(trifluoromethyl)phenyl)-3,4-dihydroisoquinolin-2(1H)-yl)propan-2-yl)picolinamide]",0.001 to 10
15,"C=CC(=O)N1CCc2ccc(-c3ccc(C(F)(F)F)cc3)cc2C1 [O-0113, 1-(7-(4-(trifluoromethyl)phenyl)-3,4-dihydroisoquinolin-2(1H)-yl)prop-2-en-1-one]",0.001 to 10
16,"C=CS(=O)(=O)N1CCc2c(cccc2-c2ccc(C(F)(F)F)cc2)C1 [O-0117, 5-(4-(trifluoromethyl)phenyl)-2-(vinylsulfonyl)-1,2,3,4-tetrahydroisoquinoline]",0.001 to 10
17,"O=C(CCS(=O)(=O)C(F)(F)F)N1CCc2c(cccc2C(O)c2ccc(C(F)(F)F)cc2)C1 (stereo not drawn) [O-0004, 1-(5-(hydroxy(4-(trifluoromethyl)phenyl)methyl)-3,4-dihydroisoquinolin-2(1H)-yl)-3-((trifluoromethyl)sulfonyl)propan-1-one]",0.001 to 10
18,"C=CC(=O)N1CCc2c(cccc2-c2ccc(C(F)(F)F)cc2)C1 [O-0116, 1-(5-(4-(trifluoromethyl)phenyl)-3,4-dihydroisoquinolin-2(1H)-yl)prop-2-en-1-one]",0.001 to 10
19,"CS(=O)(=O)c1nccc(C(=O)N2CCc3ccc(C(=O)c4ccc(C(F)(F)F)cc4)cc3C2)n1 [O-0058, (2-(methylsulfonyl)pyrimidin-4-yl)(7-(4-(trifluoromethyl)benzoyl)-3,4-dihydroisoquinolin-2(1H)-yl)methanone]",0.001 to 10
20,"C[C@H](NC(=O)OC(C)(C)C)C(=O)N1CCc2c(cccc2-c2ccc(C(F)(F)F)cc2)C1 [O-0195, tert-butyl (S)-(1-oxo-1-(5-(4-(trifluoromethyl)phenyl)-3,4-dihydroisoquinolin-2(1H)-yl)propan-2-yl)carbamate]",> 100
21,"C[C@@H](NC(=O)c1cccc(N)n1)C(=O)N1CCc2c(cccc2-c2ccc(C(F)(F)F)cc2)C1 [O-0132, (R)-6-amino-N-(1-oxo-1-(5-(4-(trifluoromethyl)phenyl)-3,4-dihydroisoquinolin-2(1H)-yl)propan-2-yl)picolinamide]",0.001 to 10
22,"CCOC(c1ccc(C(F)(F)F)cc1)c1cccc2c1CCN(C(=O)CCS(C)(=O)=O)C2 (stereo not drawn) [O-0057, 1-(5-(ethoxy(4-(trifluoromethyl)phenyl)methyl)-3,4-dihydroisoquinolin-2(1H)-yl)-3-(methylsulfonyl)propan-1-one]",0.001 to 10
23,"CS(=O)(=O)c1nc(C(=O)N2CCc3ccc(C(=O)c4ccc(C(F)(F)F)cc4)cc3C2)c[nH]1 [O-0064, (2-(methylsulfonyl)-1H-imidazol-4-yl)(7-(4-(trifluoromethyl)benzoyl)-3,4-dihydroisoquinolin-2(1H)-yl)methanone]",0.001 to 10
24,"CS(=O)(=O)CCC(=O)N1CCc2c(cccc2C(F)c2ccc(C(F)(F)F)cc2)C1 (stereo not drawn) [O-0077, 1-(5-(fluoro(4-(trifluoromethyl)phenyl)methyl)-3,4-dihydroisoquinolin-2(1H)-yl)-3-(methylsulfonyl)propan-1-one]",0.001 to 10
25,"O=C(CCS(=O)(=O)C(F)(F)F)N1CCc2ccc(C(F)(F)c3ccc(C(F)(F)F)nc3)cc2C1 [O-0062, 1-(7-(difluoro(6-(trifluoromethyl)pyridin-3-yl)methyl)-3,4-dihydroisoquinolin-2(1H)-yl)-3-((trifluoromethyl)sulfonyl)propan-1-one]",0.001 to 10
26,"O=C(c1ccc(C(F)(F)F)cc1)c1cccc2c1CCN(C(=O)c1ccc3nc(C(F)(F)F)[nH]c3c1)C2 [O-0073, (2-(trifluoromethyl)-1H-benzo[d]imidazol-6-yl)(5-(4-(trifluoromethyl)benzoyl)-3,4-dihydroisoquinolin-2(1H)-yl)methanone]",0.001 to 10
27,"O=C(CCS(=O)(=O)C(F)(F)F)N1CCc2c(cccc2C(F)c2ccc(C(F)(F)F)cc2)C1 (stereo not drawn) [O-0002, 1-(5-(fluoro(4-(trifluoromethyl)phenyl)methyl)-3,4-dihydroisoquinolin-2(1H)-yl)-3-((trifluoromethyl)sulfonyl)propan-1-one]",0.001 to 10
28,"O=C(c1ccc(C(F)(F)F)cc1)c1cccc2c1CCN(C(=O)Cc1cocn1)C2 [O-0067, 2-(oxazol-4-yl)-1-(5-(4-(trifluoromethyl)benzoyl)-3,4-dihydroisoquinolin-2(1H)-yl)ethan-1-one]",0.001 to 10
29,"O=C(c1c[nH]c(C(F)(F)F)n1)N1CCc2ccc(-c3ccc(C(F)(F)F)cc3)cc2C1 [O-0188, (2-(trifluoromethyl)-1H-imidazol-4-yl)(7-(4-(trifluoromethyl)phenyl)-3,4-dihydroisoquinolin-2(1H)-yl)methanone]",10 to 100

# Same assay, conditions: MSTO-211H+12XGTIIC reporter cells, 24 hours compound incubation, luminescence normalized to viability; read-out: MSTO-211H GMean IC50 (uM) Cell Assay Reporter Cell Variant: TEAD
row,Compound,IC50 [µM]
1,"O=C(CCS(=O)(=O)C(F)(F)F)N1CCc2c(cccc2C(F)c2ccc(C(F)(F)F)nc2)C1 (stereo not drawn) [O-0066, 1-(5-{fluoro[6-(trifluoromethyl)-3-pyridyl]methyl}-1,2,3,4-tetrahydro-2-isoquinolyl)-3-(trifluoromesyl)-1-propanone]",0.001 to 10
